Our source for the IC50 values is US10336702B2, “Pharmaceutically active compounds” (BERGENBIO ASA, priority 2015, dated 2019).

One experiment deals with T1, Akt2 (Homo sapiens, UniProt P31751).
T1 construct: unspecified tag, removed (detagged) (cleaved yes); purchased SignalChem and Proteros (Akt2); Merck Millipore (PDK1) 14-452 (PDK1); none given for Akt2
In words: Akt activation assay (PDK1-mediated activation, LANCE Ultra crosstide TR-FRET), Akt2. The format is biochemical. As to conditions: read-out: Biological Assay 1 IC50 (nM) Akt2. The method, boiled down: (§1)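 TR-FRET read-out (665/615 nm ratio) after Eu-anti-phospho-crosstide antibody, 1 h. Reaction: compound preincubated with Akt isoform, then 5 nM PDK1, lipid vesicles with 0.55 μM PtdIns(3,4,5)P3, 100 μM ATP, 100 nM crosstide, 30 min, EDTA stop. IC50 from 4-parameter equation.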

The target of the next experiment is T2, Akt3 (Homo sapiens, UniProt Q9Y243).
T2 construct: unspecified tag, removed (detagged) (cleaved yes); purchased SignalChem and Proteros (Akt3); Merck Millipore (PDK1) 14-452 (PDK1); none given for Akt3
The experiment is described as follows: Akt activation assay (PDK1-mediated activation, LANCE Ultra crosstide TR-FRET), Akt3. To be noted: read-out: Biological Assay 1 IC50 (nM) Akt3. The format is biochemical. The method, boiled down: as §1

For the next experiment, the target named is T3, p-Akt1 in LNCaP cells (Homo sapiens, UniProt P31749).
T3 construct: SureFire assays to detect cellular p-Akt1, p-Akt2 and p-Akt3 levels in WM115 cells (Akt2/3) and LNCaP cells (Akt1); endogenous in cells; host or cells: LNCaP (ECACC 89110211)
The experiment is described as follows: Phospho-Akt cellular SureFire assay, p-Akt1 in LNCaP cells. The class given is cell-based. As to conditions: read-out: Biological Assay 2 IC50 (nM) Akt1 LNCaP. From the text:
Biological Assay 2: Phospho-Akt (p-Akt) Cellular SureFire Assays
The following describes SureFire assays to detect cellular p-Akt1, p-Akt2 and p-Akt3 levels in WM115 cells (Akt2/3) and LNCaP cells (Akt1). In the case of Akt2 and Akt3, Streptavidin-coated donor beads capture a biotinylated anti-mouse antibody that in turn recognises a mouse total Akt antibody which is specific to each isoform. The protein A-conjugated acceptor beads capture an antibody that recognises the phosphoprotein. Similarly in the Akt1 kit, the donor and acceptor beads are used to capture each antibody pair consisting of an antibody that specifically recognises Akt1 as well as an antibody that recognises the phosphoprotein. In each case, close proximity of the beads allows energy transfer from donor to acceptor.
AlphaScreen® SureFire™ Phospho-Akt1 (pThr308) Kit from Perkin Elmer (TGRA2S10K)
LNCaP cells (ECACC, 89110211) cultured in RPMI-1640 culture media (Fisher, 10665193) supplemented with 2 mM L-glutamine, 1% sodium pyruvate and 10% FBS
Cell treatment: 1×10^5 WM115 cells or 5×10^4 LNCaP cells were seeded into each well of a 96 well poly-D-Lysine coated tissue culture plate and incubated overnight at 37° C.+5% CO2. Media was removed from cells and replaced with assay buffer consisting of the full culture media described above but with 0.1% FBS instead of 10% FBS. Only WM115 cells were stimulated at 37° C.+5% CO2 for 10 min with 5 μL insulin at a final concentration of 100 nM. Cells were incubated with 5 μL of test compound at a final DMSO concentration of 0.3% for 15 min at 37° C.+5% CO2. Cell lysis was carried out according to kit instructions.
Assay format (performed in subdued lighting): 4 μL cell lysate and 5 μL reaction buffer were incubated together in the dark at room temperature for 2 h. Reaction buffer was supplemented with a 1/5 dilution of activation buffer, a 1/50 dilution of acceptor beads and in the case of the custom kits, antibodies were added at dilutions of 1/20,000 for Akt2 and 1/2,000 for Akt3.
2 μL dilution buffer, supplemented with a 1/20 dilution of donor beads was added to each well and incubated for a further 2 h. Plates were read with the EnVision® Multilabel Plate Reader and using the AlphaScreen settings. Compound IC50 was determined using a 4-parameter equation.

In the next experiment the target is T4, p-Akt2 in WM115 cells (Homo sapiens, UniProt P31751).
T4 construct: SureFire assays to detect cellular p-Akt1, p-Akt2 and p-Akt3 levels in WM115 cells (Akt2/3) and LNCaP cells (Akt1); endogenous in cells; host or cells: WM115 (ECACC 91061232), insulin-stimulated
The experiment is described as follows: Phospho-Akt cellular SureFire assay, p-Akt2 in WM115 cells. The format is cell-based. As to conditions: insulin stimulated, read-out: Biological Assay 2 IC50 (nM) Akt2 WM115. The method, boiled down:
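Readout is a bead-proximity SureFire assay pairing a pThr308 Akt antibody with a total Akt2 antibody, lysate and beads incubated 2 h plus 2 h at room temperature in the dark. Before lysis, serum-starved WM115 cells received 100 nM insulin (10 min), then test compound (15 min, 0.3% DMSO); IC50 by 4-parameter equation.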

Another experiment has as its target T5, p-Akt3 in WM115 cells (Homo sapiens, UniProt Q9Y243).
T5 construct: SureFire assays to detect cellular p-Akt1, p-Akt2 and p-Akt3 levels in WM115 cells (Akt2/3) and LNCaP cells (Akt1); endogenous in cells; host or cells: WM115 (ECACC 91061232), insulin-stimulated
The experiment is described as follows: Phospho-Akt cellular SureFire assay, p-Akt3 in WM115 cells. To be noted: insulin stimulated, read-out: Biological Assay 2 IC50 (nM) Akt3 WM115. The class given is cell-based. The method, boiled down:
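pThr308-Akt3 in lysates was quantified by bead-proximity SureFire detection, pairing a phospho-specific antibody with a total Akt3 antibody. Before lysis, WM115 cells in 0.1% FBS medium were treated for 15 min at 37 °C with compound (final DMSO 0.3%), following a 10 min stimulation with 100 nM insulin. IC50 was obtained by 4-parameter fitting.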

T3 sequence (P31749 whole entry): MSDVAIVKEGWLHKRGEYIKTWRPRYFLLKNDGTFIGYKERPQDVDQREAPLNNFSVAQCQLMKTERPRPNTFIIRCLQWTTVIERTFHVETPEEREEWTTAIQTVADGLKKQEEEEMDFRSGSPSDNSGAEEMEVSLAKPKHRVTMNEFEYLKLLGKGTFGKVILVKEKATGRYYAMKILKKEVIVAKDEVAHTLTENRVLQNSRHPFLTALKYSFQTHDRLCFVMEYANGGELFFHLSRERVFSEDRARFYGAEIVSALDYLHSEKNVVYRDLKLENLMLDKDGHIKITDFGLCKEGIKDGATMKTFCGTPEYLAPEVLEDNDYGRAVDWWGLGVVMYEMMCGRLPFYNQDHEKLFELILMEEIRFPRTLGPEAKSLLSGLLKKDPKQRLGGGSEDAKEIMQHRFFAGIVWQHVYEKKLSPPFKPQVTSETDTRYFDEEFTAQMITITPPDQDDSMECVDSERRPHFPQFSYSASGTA
T4 sequence (P31751 whole entry): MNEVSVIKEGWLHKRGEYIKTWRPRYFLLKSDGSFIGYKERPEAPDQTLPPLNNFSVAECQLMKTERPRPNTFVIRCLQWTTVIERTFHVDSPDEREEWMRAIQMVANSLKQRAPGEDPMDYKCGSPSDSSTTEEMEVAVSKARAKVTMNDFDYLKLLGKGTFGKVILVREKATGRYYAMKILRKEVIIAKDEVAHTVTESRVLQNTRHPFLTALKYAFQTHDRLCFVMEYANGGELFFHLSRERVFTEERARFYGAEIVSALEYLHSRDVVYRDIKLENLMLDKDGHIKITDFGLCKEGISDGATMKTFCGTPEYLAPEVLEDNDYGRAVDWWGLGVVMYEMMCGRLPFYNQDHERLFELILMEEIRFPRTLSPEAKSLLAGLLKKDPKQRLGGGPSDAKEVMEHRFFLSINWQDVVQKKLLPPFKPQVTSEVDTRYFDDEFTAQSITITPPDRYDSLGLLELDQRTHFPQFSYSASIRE
T1 sequence (P31751 whole entry): as above
T2 sequence (Q9Y243 whole entry): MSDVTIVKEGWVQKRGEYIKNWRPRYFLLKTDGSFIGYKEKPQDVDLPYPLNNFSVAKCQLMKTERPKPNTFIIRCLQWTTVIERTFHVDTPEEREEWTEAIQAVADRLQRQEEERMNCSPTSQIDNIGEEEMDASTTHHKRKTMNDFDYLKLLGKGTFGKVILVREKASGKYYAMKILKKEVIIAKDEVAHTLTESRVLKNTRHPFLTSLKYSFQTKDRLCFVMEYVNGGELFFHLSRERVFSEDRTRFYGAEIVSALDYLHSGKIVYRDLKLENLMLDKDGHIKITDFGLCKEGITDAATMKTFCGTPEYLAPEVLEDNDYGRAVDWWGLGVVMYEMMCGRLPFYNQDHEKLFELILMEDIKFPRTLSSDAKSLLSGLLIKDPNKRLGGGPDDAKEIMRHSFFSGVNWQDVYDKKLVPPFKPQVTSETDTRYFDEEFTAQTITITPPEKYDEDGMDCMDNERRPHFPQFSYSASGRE
T5 sequence (Q9Y243 whole entry): as above

Take `CC(C)C(=O)N(C)[C@H]1CC[C@H](CC(=O)Nc2cc(-c3ccccc3)c(-c3ccc([C@]4(N)C[C@](C)(O)C4)cc3)cn2)CC1` [Example 85, N-(trans-4-(2-((5-(4-(trans-1-amino-3-hydroxy-3-methylcyclobutyl)phenyl)-4-phenylpyridin-2-yl)amino)-2-oxoethyl)cyclohexyl)-N-methylisobutyramide]: the IC50 on Akt2 worked out at 77 nM; on Akt3, 13 nM; at p-Akt1 in LNCaP cells, 4700 nM; at p-Akt2 in WM115 cells, 600 nM; at p-Akt3 in WM115 cells it was 20 nM.
On to `NC1(c2ccc(-c3ncc(NC(=O)C[C@H]4CC[C@H](N5CCCC5=O)CC4)cc3-c3ccsc3)cc2)CCC1` [Example 48, N-(6-(4-(1-aminocyclobutyl)phenyl)-5-(thiophen-3-yl)pyridin-3-yl)-2-(trans-4-(2-oxopyrrolidin-1-yl)cyclohexyl)acetamide], for which the IC50 on Akt2 was 910 nM; at Akt3, 240 nM; at p-Akt1 in LNCaP cells, above 27000 nM; at p-Akt2 in WM115 cells, 2700 nM; at p-Akt3 in WM115 cells, 110 nM.
On the same counts, the results for `COC(=O)N(C)[C@H]1CC[C@H](CC(=O)Nc2cnc(-c3ccc(C4(N)CCC4)cc3)c(-c3ccsc3)c2)CC1` [Example A68, Methyl (trans-4-(2-((6-(4-(1-aminocyclobutyl)phenyl)-5-(thiophen-3-yl)pyridin-3-yl)amino)-2-oxoethyl)cyclohexyl)(methyl)carbamate] are 850 nM, 40 nM, above 30000 nM, 7400 nM and 250 nM.
In the case of `COC(=O)N[C@H]1CC[C@H](CC(=O)Nc2cc(-c3ccccc3)c(-c3ccc([C@]4(N)C[C@](C)(O)C4)cc3)cn2)CC1` [Example 103, Methyl (trans-4-(2-((5-(4-(trans-1-amino-3-hydroxy-3-methylcyclobutyl)phenyl)-4-phenylpyridin-2-yl)amino)-2-oxoethyl)cyclohexyl)carbamate], the IC50 at Akt2 came out at 78 nM; at Akt3, 11 nM; on p-Akt1 in LNCaP cells, 2600 nM; on p-Akt2 in WM115 cells, 390 nM; on p-Akt3 in WM115 cells, 15 nM.
On to `CC(=O)N[C@H]1CC[C@H](C(C)C(=O)Nc2cnc(-c3ccc(C4(N)CCC4)cc3)c(-c3ccccc3)c2)CC1` (relative stereo) [Example 41, 2-(trans-4-acetamidocyclohexyl)-N-(6-(4-(1-aminocyclobutyl)phenyl)-5-phenylpyridin-3-yl)propanamide], for which the IC50 on Akt2 is 240 nM; at Akt3, 170 nM; on p-Akt1 in LNCaP cells, above 30000 nM; on p-Akt2 in WM115 cells, 1500 nM; on p-Akt3 in WM115 cells it was 130 nM.
As to `CN(C(=O)C1CCC1)[C@H]1CC[C@H](CC(=O)Nc2cc(-c3ccccc3)c(-c3ccc([C@]4(N)C[C@](C)(O)C4)cc3)cn2)CC1` [Example A76, N-(trans-4-(2-((5-(4-(trans-1-amino-3-hydroxy-3-methylcyclobutyl)phenyl)-4-phenylpyridin-2-yl)amino)-2-oxoethyl)cyclohexyl)-N-methylcyclobutanecarboxamide], the IC50 at Akt2 was determined as 190 nM; at Akt3 it was 13 nM; at p-Akt1 in LNCaP cells, 4300 nM; on p-Akt2 in WM115 cells it was 1200 nM; on p-Akt3 in WM115 cells, 59 nM.
As for `COC(=O)N[C@H]1CC[C@H](CC(=O)Nc2cc(-c3ccccc3)c(-c3ccc(C4(N)CC4)c(F)c3)cn2)CC1` [Example A106, Methyl (trans-4-(2-((5-(4-(1-aminocyclopropyl)-3-fluorophenyl)-4-phenylpyridin-2-yl)amino)-2-oxoethyl)cyclohexyl)carbamate], the IC50 on Akt2 is 11000 nM; on Akt3, 750 nM; at p-Akt1 in LNCaP cells it was above 30000 nM; at p-Akt2 in WM115 cells it was 23000 nM; on p-Akt3 in WM115 cells it was 1700 nM.
`COC(=O)N(C)[C@H]1CC[C@H](C(C)C(=O)Nc2cnc(-c3ccc(C4(N)CCC4)cc3)c(-c3ccccc3)c2)CC1` (relative stereo) [Example 54, Methyl (trans-4-(1-((6-(4-(1-aminocyclobutyl)phenyl)-5-phenylpyridin-3-yl)amino)-1-oxopropan-2-yl)cyclohexyl)(methyl)carbamate]: the IC50 is 970 nM at Akt2; 280 nM on Akt3; above 21000 nM on p-Akt1 in LNCaP cells; 6400 nM on p-Akt2 in WM115 cells; 240 nM on p-Akt3 in WM115 cells.
For `CCCC(=O)N(C)[C@H]1CC[C@H](CC(=O)Nc2cnc(-c3ccc(C4(N)CC4)cc3)c(-c3ccccc3)c2)CC1` [Example A33, N-(trans-4-(2-((6-(4-(1-aminocyclopropyl)phenyl)-5-phenylpyridin-3-yl)amino)-2-oxoethyl)cyclohexyl)-N-methylbutyramide], the IC50 at Akt2 was 380 nM; on Akt3, 98 nM; on p-Akt1 in LNCaP cells, above 16000 nM; at p-Akt2 in WM115 cells, 2500 nM; at p-Akt3 in WM115 cells, 140 nM.
Regarding `COC(=O)N(C)[C@H]1CC[C@H](CC(=O)Nc2cc(-c3ccsc3)c(-c3ccc(C4(N)CCC4)cc3)nn2)CC1` [Example 81, Methyl (trans-4-(2-((6-(4-(1-aminocyclobutyl)phenyl)-5-(thiophen-3-yl)pyridazin-3-yl)amino)-2-oxoethyl)cyclohexyl)(methyl)carbamate], the IC50 at Akt2 was 1300 nM; at Akt3 it was 59 nM; on p-Akt1 in LNCaP cells, above 27000 nM; at p-Akt2 in WM115 cells, 4300 nM; on p-Akt3 in WM115 cells, 120 nM.
As for `CN(C(=O)C1CC1)[C@H]1CC[C@H](CC(=O)Nc2cc(-c3ccccc3)c(-c3ccc(C4(N)CCC4)cc3)cn2)CC1` [Example A72, N-(trans-4-(2-((5-(4-(1-aminocyclobutyl)phenyl)-4-phenylpyridin-2-yl)amino)-2-oxoethyl)cyclohexyl)-N-methylcyclopropanecarboxamide], the IC50 at Akt2 worked out at 290 nM; on Akt3, 24 nM; on p-Akt1 in LNCaP cells, 8800 nM; on p-Akt2 in WM115 cells, 3500 nM; on p-Akt3 in WM115 cells it was 220 nM.
On to `C[C@]1(O)C[C@@](N)(c2ccc(-c3cnc(NC(=O)C[C@H]4CC[C@H](N5CCOC5=O)CC4)cc3-c3ccccc3)cc2)C1` [Example A57, N-(5-(4-(trans-1-amino-3-hydroxy-3-methylcyclobutyl)phenyl)-4-phenylpyridin-2-yl)-2-(trans-4-(2-oxooxazolidin-3-yl)cyclohexyl)acetamide], for which the IC50 at Akt2 was 130 nM; at Akt3, 8 nM; at p-Akt1 in LNCaP cells, 5800 nM; on p-Akt2 in WM115 cells it was 360 nM; on p-Akt3 in WM115 cells it was 17 nM.
